Measurements from patent US20090005395A1 (Solvay Pharmaceuticals, B.V., priority 2007, published 2009).
Read-outs that look alike come from different tables or passages of the source.

Columns and labels:
[1] = Plasma and brain concentrations of sildenafil and its N-oxide after i.v. or p.o. administration to mice (LC-MS/MS); assay type: in vivo, male NMRI mice; conditions: sildenafil administered i.v. or p.o.
Experimental: Sildenafil and its N-oxide were analyzed in mouse plasma and brain samples using a generic bioanalytical method comprising protein precipitation and HPLC with MS/MS detection.
Sample preparation: Proteins in 100 μl plasma were precipitated with acetonitrile, and 5 μl samples of the obtained solution were analyzed. Complete brains were homogenized and centrifuged, and 10 μl samples of the supernatant were analyzed.
Liquid Chromatography-Tandem Mass Spectrometry (LC-MS/MS) was performed using a Sciex API4000 LC-MS/MS. Quantification of the samples was done using extracted calibration samples, treated the same as the study samples in the range of 1-5000 ng/ml and 5.0-5000 ng/brain for plasma and brains samples, respectively. Compound peak area was used for quantification. The calibration curves were fitted to the model y=A+Bx+Cx^2 (y is the peak area of the analyte, x is the nominal calibration level in ng/ml (plasma) or ng/g (brain), A is the intercept, B is the slope and C is the description of the curvature). 1/x^2 weighing was used. LC-MS/MS system performance was monitored using a reference solution injected at standard intervals. The method use for testing was not validated in detail, therefore the reported concentrations were good estimations. The Lower Limit Of Quantification (LLOQ) was established at 1.00 ng/ml and 5.00 ng/brain, for plasma and brain samples, respectively. […]

[2] = Plasma pharmacokinetics of sildenafil and its N-oxide; assay type: in vivo; conditions: male, NMRI, mouse, mice, plasma; for AUC: Tend = 7 hrs, read-out: AUC0→end; for AUC(0-inf): Tend = ∞
Experimental: Liquid Chromatography-Tandem Mass Spectrometry (LC-MS/MS) was performed using a Sciex API4000 LC-MS/MS. […] Compound peak area was used for quantification. The calibration curves were fitted to the model y=A+Bx+Cx^2 (y is the peak area of the analyte, x is the nominal calibration level in ng/ml (plasma) or ng/g (brain), A is the intercept, B is the slope and C is the description of the curvature). 1/x^2 weighing was used. LC-MS/MS system performance was monitored using a reference solution injected at standard intervals. […] The Lower Limit Of Quantification (LLOQ) was established at 1.00 ng/ml and 5.00 ng/brain, for plasma and brain samples, respectively. Reversed phase HPLC was performed using gradient elution by a Hypersil BDS C18 100×4.6 mm 3 μm analytical column, with a temperature of 45° C. and a flow of 1.00 ml/min: […]

PDE-V = PDE-V (Homo sapiens, UniProt O76074); conditions: cited from earlier work
CYP3A4 = CYP3A4 (Homo sapiens, UniProt P08684); conditions: cited from earlier work
CYP2C9 = CYP2C9 (Homo sapiens, UniProt P11712); conditions: cited from earlier work
PDE-I = test: In vitro inhibition of phosphodiesterases (CEREP): PDE-I; conditions: bovine brain
PDE-IV = test: In vitro inhibition of phosphodiesterases (CEREP): PDE-IV; conditions: human U-937 monocytes
[3] = in vivo; cited from earlier work

CYP3A4, sequence (P08684 whole entry): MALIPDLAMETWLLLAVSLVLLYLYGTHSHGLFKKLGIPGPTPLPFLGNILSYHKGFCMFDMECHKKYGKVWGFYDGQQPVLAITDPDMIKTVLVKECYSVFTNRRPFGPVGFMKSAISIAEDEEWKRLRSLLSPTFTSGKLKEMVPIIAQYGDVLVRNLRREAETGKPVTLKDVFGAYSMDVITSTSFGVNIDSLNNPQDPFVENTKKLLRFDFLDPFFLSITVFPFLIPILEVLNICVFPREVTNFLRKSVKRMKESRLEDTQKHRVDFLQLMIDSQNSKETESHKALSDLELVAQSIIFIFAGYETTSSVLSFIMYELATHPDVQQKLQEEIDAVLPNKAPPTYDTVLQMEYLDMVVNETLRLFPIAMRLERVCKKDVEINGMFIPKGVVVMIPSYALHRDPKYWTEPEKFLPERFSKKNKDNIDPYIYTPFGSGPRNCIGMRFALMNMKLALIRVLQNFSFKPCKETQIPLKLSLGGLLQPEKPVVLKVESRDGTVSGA
CYP2C9, sequence (P11712 whole entry): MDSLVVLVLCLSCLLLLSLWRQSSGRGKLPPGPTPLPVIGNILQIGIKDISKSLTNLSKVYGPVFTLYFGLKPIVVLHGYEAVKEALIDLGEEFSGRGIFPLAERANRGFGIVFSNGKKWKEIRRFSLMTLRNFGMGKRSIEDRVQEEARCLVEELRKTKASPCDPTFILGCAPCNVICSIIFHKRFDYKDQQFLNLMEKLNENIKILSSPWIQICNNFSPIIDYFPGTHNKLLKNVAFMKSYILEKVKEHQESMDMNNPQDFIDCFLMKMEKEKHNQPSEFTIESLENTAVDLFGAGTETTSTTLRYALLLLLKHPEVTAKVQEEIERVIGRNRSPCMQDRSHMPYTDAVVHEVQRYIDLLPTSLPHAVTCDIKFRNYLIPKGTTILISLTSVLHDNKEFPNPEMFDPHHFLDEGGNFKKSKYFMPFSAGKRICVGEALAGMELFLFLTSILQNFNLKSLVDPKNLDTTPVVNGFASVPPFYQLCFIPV

CCCc1nn(C)c2c(=O)[nH]c(-c3cc(S(=O)(=O)N4CCN(C)CC4)ccc3OCC)nc12 [Sildenafil, 1-[4-ethoxy-3-(6,7-dihydro-1-methyl-7-oxo-3-propyl-1H-pyrazolo[4,3-d]pyrimidin-5-yl)phenyl-sulfonyl]-4-methylpiperazine, reference compound]
N-oxide in the brain [1]: no trace can be found at all | Tmax ([2]; iv, i.v. 1 mg/kg): 0 min | half-life ([2]; iv, i.v. 1 mg/kg): 84 min | AUC ([2]; iv, i.v. 1 mg/kg): 232 ng·h/mL | AUC(0-inf) ([2]; iv, i.v. 1 mg/kg): 232 ng·h/mL | Cmax ([2]; iv, i.v. 1 mg/kg, extrapolated to T0 (time zero), read-out: Cmax (C0)): 538 ng/mL | Vd ([2]; iv, i.v. 1 mg/kg): 8.9 L/kg | clearance ([2]; iv, i.v. 1 mg/kg): 71.8 mL/min/kg | bioavailability ([2]; po, 10 mg/kg, i.v.): 28.9% | Tmax ([2]; po, p.o. 10 mg/kg): 12 min | half-life ([2]; po, p.o. 10 mg/kg): 66 min | AUC ([2]; po, p.o. 10 mg/kg): 661 ng·h/mL | AUC(0-inf) ([2]; po, p.o. 10 mg/kg): 670 ng·h/mL | Cmax ([2]; po, p.o. 10 mg/kg, read-out: Cmax): 533 ng/mL | more potent on PDE-V than on PDE-1 (PDE-V; in vitro, versus PDE-1): > 80 fold | more potent on PDE-V than on PDE-II (PDE-V; in vitro, versus PDE-II): > 700 fold | more potent on PDE-V than on PDE-IV (PDE-V; in vitro, versus PDE-IV): > 700 fold | more potent on PDE-V than on PDE-IX (PDE-V; in vitro, versus PDE-IX): > 700 fold | more potent on PDE-V than on PDE-VI (PDE-V; in vitro, versus PDE-VI): about 10 fold | more potent on PDE-V than on PDE-VII (PDE-V; in vitro, versus PDE-VII): > 700 fold | more potent on PDE-V than on PDE-VIII (PDE-V; in vitro, versus PDE-VIII): > 700 fold | more potent on PDE-V than on PDE-X (PDE-V; in vitro, versus PDE-X): > 700 fold | more potent on PDE-V than on PDE-XI (PDE-V; in vitro, versus PDE-XI): > 700 fold | clearance route by hepatic microsomal iso-enzyme CYP3A4 (CYP3A4): major route | clearance route by hepatic microsomal iso-enzyme CYP2C9 (CYP2C9): minor route | pIC50 PDE-I (PDE-I): 5.0 | pIC50 PDE-IV (PDE-IV): 4.8

CCCc1nn(C)c2c(=O)[nH]c(-c3cc(S(=O)(=O)N4CCNCC4)ccc3OCC)nc12 [UK 103,320, 1-[[3-(6,7-dihydro-1-methyl-7-oxo-3-propyl-1H-pyrazolo[4,3-d]pyrimidin-5-yl)-4-ethoxy-phenyl]sulfonyl]-piperazine]
in vitro potency for PDE-V relative to the parent drug (PDE-V; of sildenafil): approximately 50% | potency relative to sildenafil (PDE-V; reported): about half | Plasma concentrations of the metabolite relative to those seen for sildenafil [3]: approximately 40%
